Assay results reported in ChEMBL document CHEMBL4622971, “The Optimization of a Novel, Weak Bromo and Extra Terminal Domain (BET) Bromodomain Fragment Ligand to a Potent and Selective Second Bromodomain (BD2) Inhibitor” (J Med Chem, 2020).

What was measured:
[1] = Distribution coefficient, logD of the compound at pH 7.4 by chromatography; format: physicochemical
[2] = Intrinsic clearance in dog hepatocytes at 0.5 uM incubated for 120 mins by LC-MS/MS analysis; format: ADME, cell-based, Canis lupus familiaris, Hepatocyte; conditions: 2 h
[3] = Blood clearance in male Wistar Han rat at 1 mg/kg, iv measured up to 7 hrs by LC-MS/MS analysis; format: ADME, organism-based; conditions: whole blood
[4] = Volume of distribution at steady state in male Wistar Han rat at 1 mg/kg, iv measured up to 7 hrs by LC-MS/MS analysis; format: ADME, organism-based; conditions: in vivo, read-out: Vdss
[5] = Half life in male Wistar Han rat at 1 mg/kg, iv measured up to 7 hrs by LC-MS/MS analysis; format: ADME, organism-based; conditions: in vivo
[6] = Oral bioavailability in male Wistar Han rat at 3 mg/kg measured up to 7 hrs by LC-MS/MS analysis; format: ADME, organism-based; conditions: in vivo
[7] = Intrinsic clearance in rat hepatocytes at 0.5 uM incubated for 60 mins by LC-MS/MS analysis; format: ADME, cell-based, Hepatocyte; conditions: 1 h
[8] = Intrinsic clearance in human hepatocytes at 0.5 uM incubated for 120 mins by LC-MS/MS analysis; format: ADME, cell-based, Hepatocyte; conditions: 2 h
[9] = Intrinsic clearance in Wistar Han rat liver microsomes at 0.5 uM pre-incubated up to 45 mins before NADPH addition by LC-MS/MS analysis; format: ADME, Microsome
[10] = Intrinsic clearance in human liver microsomes at 0.5 uM pre-incubated up to 45 mins before NADPH addition by LC-MS/MS analysis; format: ADME, Microsome
[11] = Half life in male Wistar Han rat at […], iv measured up to 7 hrs by LC-MS/MS analysis; conditions: in vivo
[12] = Blood clearance in male Wistar Han rat at […], iv measured up to 7 hrs by LC-MS/MS analysis; conditions: whole blood
[13] = Volume of distribution at steady state in male Wistar Han rat at […], iv measured up to 7 hrs by LC-MS/MS analysis; conditions: in vivo, read-out: Vdss
[14] = Dose normalized AUC in male Wistar Han rat at 3 mg/kg, po measured up to 7 hrs by LC-MS/MS analysis; format: ADME, organism-based; conditions: in vivo
[15] = Blood clearance in beagle dog at 10.5 mg/kg, iv measured up to 7 hrs by LC-MS/MS analysis; format: ADME, organism-based, Canis lupus familiaris; conditions: whole blood
[16] = Volume of distribution at steady state in beagle dog at 10.5 mg/kg, iv measured up to 7 hrs by LC-MS/MS analysis; format: ADME, organism-based, Canis lupus familiaris; conditions: in vivo, read-out: Vdss
[17] = Half life in beagle dog at 10.5 mg/kg, iv measured up to 7 hrs by LC-MS/MS analysis; format: ADME, organism-based, Canis lupus familiaris; conditions: in vivo
[18] = Oral bioavailability in beagle dog at 10.5 mg/kg, iv measured up to 7 hrs by LC-MS/MS analysis; format: ADME, organism-based, Canis lupus familiaris; conditions: in vivo

With `CCNC(=O)c1cc(C(=O)NC)c(=O)n(Cc2ccccc2)c1` the chromatographic logD [1] was 3, the CLH [2] was < 1.26 mL/min/g and the clearance [3] was 12 mL/min/kg. It also gave a Vd [4] of 0.8 L/kg, a half-life [5] of 36 min and a bioavailability [6] of 104%. The CLH [7] was < 0.8 mL/min/g and the CLH [8] was < 0.87 mL/min/g.
In the case of `CNC(=O)c1cccn(Cc2ccccc2)c1=O`, the chromatographic logD [1] is reported as 3.
Compound `CNC(=O)c1cc(C(=O)NC2CC2)cn(Cc2ccccc2F)c1=O` has a chromatographic logD [1] of 3.
In the case of `CNC(=O)c1cc(C(=O)NC2CC2)cn(Cc2cccc3cc[nH]c23)c1=O`, the chromatographic logD [1] is reported as 3.7.
For `CNC(=O)c1cc(C(=O)NCCC2CCCNC2)cn(Cc2ccccc2)c1=O` (stereo not drawn), the chromatographic logD [1] was 1.6.
`CNC(=O)c1cc(C(=O)NC2CC2)cn(Cc2cccc(C)c2)c1=O` gave a chromatographic logD [1] of 3.6.
`CNC(=O)c1cc(C(=O)NCCC(C)C)cn(Cc2ccccc2)c1=O` gave a chromatographic logD [1] of 4.8.
With `CNC(=O)c1cc(C(N)=O)cn(Cc2ccccc2)c1=O` the chromatographic logD [1] was 2.
`CNC(=O)c1cc(C(=O)NC2CCC2)cn(Cc2cccc(NC)c2)c1=O` gave a chromatographic logD [1] of 3.6.
For `CNC(=O)c1cc(C(=O)NC2CC2)cn(Cc2ccc3nc[nH]c3c2)c1=O`, the chromatographic logD [1] was 1.2.
`CNC(=O)c1cc(C(=O)NC2CC2)cn(CC2CCCCC2)c1=O` showed a chromatographic logD [1] of 4.
`CNC(=O)c1cc(C(=O)NC2CC2)cn(Cc2cccc(OC)c2)c1=O` gave a chromatographic logD [1] of 3.
`CNC(=O)c1ccc(=O)n(Cc2cc(Br)ccc2F)c1` showed a chromatographic logD [1] of 2.6, a CLH [9] of 0.76 mL/min/g and a CLH [10] of 0.53 mL/min/g.
`CNC(=O)c1cc(C(=O)NC2CC2)cn(Cc2ccc(F)cc2)c1=O` showed a chromatographic logD [1] of 3.2.
`CNC(=O)c1cc(C(=O)NC2CC2)cn(Cc2cccc(CCN3CCOCC3)c2)c1=O` gave a chromatographic logD [1] of 2.3.
`CNC(=O)c1cc(C(=O)NC2CC2)cn(Cc2cccc(C#N)c2)c1=O` gave a chromatographic logD [1] of 2.6.
In the case of `CNC(=O)c1cc(C(=O)NC2CC2)cn(Cc2cccc3c2CCN3)c1=O`, the chromatographic logD [1] is reported as 2.1, the CLH [2] is reported as < 1.26 mL/min/g and the clearance [3] is reported as 16 mL/min/kg. The Vd [4] was 0.9 L/kg, the half-life [5] was 36 min and the bioavailability [6] was 53%. For the same compound, the CLH [7] was < 0.8 mL/min/g and the CLH [8] was < 0.45 mL/min/g.
Compound `CNC(=O)c1cc(C(=O)NC2CCC2)cn(Cc2cccnc2)c1=O` has a chromatographic logD [1] of 1.8.
`CNC(=O)c1cc(C(=O)NC2CC2)cn(Cc2cccc3[nH]c(C)nc23)c1=O` showed a chromatographic logD [1] of 1.5.
Work on `CNC(=O)c1cc(C(=O)NCCO)cn(Cc2ccccc2)c1=O` yielded a chromatographic logD [1] of 1.9.
For `CNC(=O)c1cc(C(=O)NC2CCC2)cn(Cc2ccccc2)c1=O`, the chromatographic logD [1] was 3.8.
With `CNC(=O)c1cc(C(=O)NC2CC2)cn(Cc2ccc(C)cc2)c1=O` the chromatographic logD [1] was 3.5.
Work on `CNC(=O)c1ccc(=O)n(Cc2ccccc2)c1` yielded a chromatographic logD [1] of 1.6.
For `CCNC(=O)c1cccn(Cc2ccccc2)c1=O`, the chromatographic logD [1] was 3.7.
Work on `CNC(=O)c1cc(C(=O)NC2CC2)cn(Cc2ccc(OC)cc2)c1=O` yielded a chromatographic logD [1] of 3.
With `CNC(=O)c1cc(C(=O)NC2CC2)cn(Cc2cccc([C@@H](C)O)c2)c1=O` the chromatographic logD [1] was 2.2, the CLH [2] was < 1.26 mL/min/g and the clearance [3] was 74 mL/min/kg. For the same compound, the Vd [4] was 1.7 L/kg, the half-life [5] was 24 min and the CLH [7] was 3 mL/min/g. The CLH [8] was < 0.45 mL/min/g.
`CNC(=O)c1cc(C(=O)NC2CCOCC2)cn(Cc2ccccc2)c1=O` gave a chromatographic logD [1] of 2.8.
Work on `CNC(=O)c1cc(C(=O)NC2CC2)cn(Cc2cccc3occc23)c1=O` yielded a chromatographic logD [1] of 3.4.
Compound `CNC(=O)c1cc(C(=O)NC2CC2)cn(Cc2nccc3[nH]ccc23)c1=O` has a chromatographic logD [1] of 1.7.
In the case of `CNC(=O)c1cc(C(=O)NCCC2CCOCC2)cn(Cc2ccccc2)c1=O`, the chromatographic logD [1] is reported as 3.6.
For `CNC(=O)c1cc(C(=O)NCCOC)cn(Cc2ccccc2)c1=O`, the chromatographic logD [1] was 2.7.
With `CNC(=O)c1cc(C(=O)NC)c(=O)n(Cc2ccccc2)c1` the chromatographic logD [1] was 2.4.
In the case of `CNC(=O)c1cc(C(=O)NC2CC2)cn([C@H](C)c2ccccc2)c1=O`, the chromatographic logD [1] is reported as 3.5, the CLH [7] is reported as 1.5 mL/min/g and the CLH [8] is reported as < 0.87 mL/min/g. The half-life at 7 h [11] was 24 min, the clearance at 7 h [12] was 72 mL/min/kg and the Vd at 7 h [13] was 1.6 L/kg.
Compound `CNC(=O)c1cc(C(=O)NC2CC2)cn(CC2CCOCC2)c1=O` has a chromatographic logD [1] of 1.5.
`CNC(=O)c1cc(C(=O)NC2CCC2)cn(Cc2ccncc2)c1=O` gave a chromatographic logD [1] of 1.7.
`CNC(=O)c1cc(C(=O)NC2CC2)cn(Cc2cccc3[nH]ncc23)c1=O` showed a chromatographic logD [1] of 1.5, a clearance [3] of 42 mL/min/kg and a Vd [4] of 1.2 L/kg. For the same compound, the half-life [5] was 24 min, the bioavailability [6] was 14% and the CLH [7] was < 0.8 mL/min/g. The CLH [8] was < 0.45 mL/min/g.
With `CNC(=O)c1cc(C(=O)NC(C)C)cn(Cc2ccccc2)c1=O` the chromatographic logD [1] was 3.6.
`CNC(=O)c1cc(C(=O)NC2CC2)cn(Cc2cccc(F)c2)c1=O` showed a chromatographic logD [1] of 3.2.
Compound `CNC(=O)c1cc(C(=O)NC2CC2)c(C)n(Cc2ccccc2)c1=O` has a chromatographic logD [1] of 2.9.
For `CNC(=O)c1cc(C(=O)NC2CC2)cn(Cc2cccc3[nH]ccc23)c1=O`, the chromatographic logD [1] was 2.9, the CLH [2] was < 1.26 mL/min/g and the clearance [3] was 23 mL/min/kg. It also gave a Vd [4] of 1.3 L/kg, a half-life [5] of 48 min and an AUC/dose [14] of 23.6 kg·min/L. The CLH [7] was 1.66 to 1.7 mL/min/g and the CLH [8] was < 0.45 mL/min/g.
Work on `CNC(=O)c1cc(C(=O)NC2CCC2)cn(Cc2ccccn2)c1=O` yielded a chromatographic logD [1] of 2.2.
In the case of `CNC(=O)c1cc(C(=O)NCC(C)C)cn(Cc2ccccc2)c1=O`, the chromatographic logD [1] is reported as 4.3.
Work on `CNC(=O)c1cc(C(=O)NC2CC2)cn(Cc2cccc3cn[nH]c23)c1=O` yielded a chromatographic logD [1] of 2.2.
For `CNC(=O)c1cc(C(=O)NCCCC2CNCCO2)cn(Cc2ccccc2)c1=O` (racemic), the chromatographic logD [1] was 1.4.
For `CNC(=O)c1cc(C(=O)NC2CC2)cn(CC2CCCOC2)c1=O` (racemic), the chromatographic logD [1] was 2.
`CNC(=O)c1cc(C(=O)NC2CC2)cn(CC2CCCCO2)c1=O` (racemic) showed a chromatographic logD [1] of 2.6.
In the case of `CNC(=O)c1cc(C(=O)NC2CC2)cn(Cc2ccccc2)c1=O` [GSK620], the chromatographic logD [1] is reported as 3.1, the CLH [2] is reported as < 1.26 mL/min/g and the clearance [3] is reported as 12 mL/min/kg. It also gave a Vd [4] of 0.8 L/kg, a half-life [5] of 66 min and a bioavailability [6] of 67%. For the same compound, the clearance [15] was 2 mL/min/kg, the Vd [16] was 1 L/kg and the half-life [17] was 342 min. The bioavailability [18] was 57%, the CLH [7] was 0.95 mL/min/g and the CLH [8] was < 0.45 mL/min/g.
